Assays:
Format in all cases: biochemical
GST-JAK1 enzyme = GST-JAK1 enzyme (Homo sapiens, UniProt P23458); assay: JAK1 Kinase Assay Protocol; conditions: Caliper LabChip assay, ATP 100 μM, fluoresceinated peptide; read-out: LLE_JAK1 (IC50)
Experimental: The assay reactions were performed in U-bottom 384-well plates. The final assay volume was 30 μl prepared from 15 μl additions of enzyme and substrates (fluoresceinated peptide and ATP) and test compounds in assay buffer (20 mM HEPES pH 7.4, 10 mM MgCl2, 25 mM beta-glycerol phosphate, 0.015% Brij35 and 4 mM DTT). The reaction was initiated by the combination of GST-JAK1 enzyme with substrates and test compounds. The reactions were incubated at room temperature for 3 hours and terminated by adding 60 μl of 35 mM EDTA to each sample. Each reaction mixture was analyzed on the Caliper LabChip 3000 (Caliper, Hopkinton, Mass.) by electrophoretic separation of the fluorescent substrate and phosphorylated product. […] The final concentration of reagents in the assays was: ATP, 100 μM; fluoresceinated peptide, 1.5 μM; GST-JAK1, 12.5 nM; and DMSO, 1.6%. […] Compounds were dissolved at 10 mM in dimethylsulfoxide (DMSO) and evaluated at eleven concentrations. IC50 values were derived by non-linear regression analysis.

JAK3 enzyme = target: T1, JAK3 enzyme (Homo sapiens, UniProt P52333); assay: JAK3 Kinase Assay Protocol (Filter); conditions: 33P γ-ATP, 8 μM ATP, CSKtide substrate, read-out: LLE_JAK3_FB (IC50)
T1 sequence (P52333 1-1124): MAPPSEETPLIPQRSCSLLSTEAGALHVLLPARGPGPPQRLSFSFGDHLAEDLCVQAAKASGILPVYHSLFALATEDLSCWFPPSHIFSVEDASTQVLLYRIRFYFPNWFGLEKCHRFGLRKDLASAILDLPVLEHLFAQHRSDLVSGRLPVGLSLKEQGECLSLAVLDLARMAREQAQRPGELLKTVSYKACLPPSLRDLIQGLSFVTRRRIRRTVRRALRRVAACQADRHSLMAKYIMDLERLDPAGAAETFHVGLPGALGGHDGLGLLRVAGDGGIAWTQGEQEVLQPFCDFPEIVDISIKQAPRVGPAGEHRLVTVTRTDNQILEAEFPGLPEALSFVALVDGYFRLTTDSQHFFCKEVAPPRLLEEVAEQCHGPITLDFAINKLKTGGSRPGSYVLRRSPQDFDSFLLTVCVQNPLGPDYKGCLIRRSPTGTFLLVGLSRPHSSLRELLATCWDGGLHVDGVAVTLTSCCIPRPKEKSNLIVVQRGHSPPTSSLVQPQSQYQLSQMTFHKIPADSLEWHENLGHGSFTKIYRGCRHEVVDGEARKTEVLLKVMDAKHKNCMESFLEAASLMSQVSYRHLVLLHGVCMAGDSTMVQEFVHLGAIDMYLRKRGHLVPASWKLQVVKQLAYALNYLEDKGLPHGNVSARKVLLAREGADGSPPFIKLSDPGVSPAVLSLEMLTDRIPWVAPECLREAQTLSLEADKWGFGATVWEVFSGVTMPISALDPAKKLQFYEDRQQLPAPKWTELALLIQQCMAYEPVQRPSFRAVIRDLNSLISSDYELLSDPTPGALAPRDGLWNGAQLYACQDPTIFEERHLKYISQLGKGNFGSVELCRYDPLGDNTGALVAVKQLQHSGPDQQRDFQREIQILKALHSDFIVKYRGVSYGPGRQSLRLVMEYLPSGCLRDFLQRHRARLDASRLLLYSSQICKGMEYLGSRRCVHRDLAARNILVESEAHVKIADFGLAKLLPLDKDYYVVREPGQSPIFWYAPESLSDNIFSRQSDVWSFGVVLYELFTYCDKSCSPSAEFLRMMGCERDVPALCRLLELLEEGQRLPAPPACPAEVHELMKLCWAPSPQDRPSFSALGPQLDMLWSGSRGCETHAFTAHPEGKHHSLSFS
Experimental: Kinase reactions consisted of 5 ng of JAK3 enzyme, 30 uM CSKtide substrate, 0.2 μCi ^33P γ-ATP, 8 μM ATP in 30 μl kinase buffer (50 mM Hepes, pH 8.0, 10 mM MgCl2, 1 mM EGTA, 2 mM DTT). Reactions were incubated for 30 minutes at room temperature and stopped by the addition of cold trichloroacetic acid (TCA) to a final concentration of 15%. TCA precipitates were collected onto 384 well phosphocellulose filters (Millipore) using a Platemate to transfer the reaction mixture, washed on an EMBLA plate washer and the filters were quantitated using a TopCount 384-well liquid scintillation counter. […] Compounds were dissolved at 10 mM in dimethylsulfoxide (DMSO) and evaluated at six concentrations, each in triplicate. The final concentration of DMSO in the assay equaled 2%. IC50 values were derived by non-linear regression analysis.

GST-JAK3 enzyme = target: T2, GST-JAK3 enzyme (Homo sapiens, UniProt P52333); assay: JAK3 Kinase Assay Protocol (Caliper); conditions: Caliper LabChip assay, ATP 8 μM, fluoresceinated peptide; read-out: LLE_JAK3_CAL (IC50)
T2 sequence (P52333 1-1124): T1 sequence (P52333 1-1124)
Experimental: The assay reactions were performed in U-bottom 384-well plates. […] The reaction was initiated by the combination of GST-JAK3 enzyme with substrates and test compounds. The reactions were incubated at room temperature for 3 hours and terminated by adding 60 μl of 35 mM EDTA to each sample. Each reaction mixture was analyzed on the Caliper LabChip 3000 (Caliper, Hopkinton, Mass.) by electrophoretic separation of the fluorescent substrate and phosphorylated product. […] Compounds were dissolved at 10 mM in dimethylsulfoxide (DMSO) and evaluated at eleven concentrations. IC50 values were derived by non-linear regression analysis.

GST-JAK1 enzyme, sequence (P23458 whole entry): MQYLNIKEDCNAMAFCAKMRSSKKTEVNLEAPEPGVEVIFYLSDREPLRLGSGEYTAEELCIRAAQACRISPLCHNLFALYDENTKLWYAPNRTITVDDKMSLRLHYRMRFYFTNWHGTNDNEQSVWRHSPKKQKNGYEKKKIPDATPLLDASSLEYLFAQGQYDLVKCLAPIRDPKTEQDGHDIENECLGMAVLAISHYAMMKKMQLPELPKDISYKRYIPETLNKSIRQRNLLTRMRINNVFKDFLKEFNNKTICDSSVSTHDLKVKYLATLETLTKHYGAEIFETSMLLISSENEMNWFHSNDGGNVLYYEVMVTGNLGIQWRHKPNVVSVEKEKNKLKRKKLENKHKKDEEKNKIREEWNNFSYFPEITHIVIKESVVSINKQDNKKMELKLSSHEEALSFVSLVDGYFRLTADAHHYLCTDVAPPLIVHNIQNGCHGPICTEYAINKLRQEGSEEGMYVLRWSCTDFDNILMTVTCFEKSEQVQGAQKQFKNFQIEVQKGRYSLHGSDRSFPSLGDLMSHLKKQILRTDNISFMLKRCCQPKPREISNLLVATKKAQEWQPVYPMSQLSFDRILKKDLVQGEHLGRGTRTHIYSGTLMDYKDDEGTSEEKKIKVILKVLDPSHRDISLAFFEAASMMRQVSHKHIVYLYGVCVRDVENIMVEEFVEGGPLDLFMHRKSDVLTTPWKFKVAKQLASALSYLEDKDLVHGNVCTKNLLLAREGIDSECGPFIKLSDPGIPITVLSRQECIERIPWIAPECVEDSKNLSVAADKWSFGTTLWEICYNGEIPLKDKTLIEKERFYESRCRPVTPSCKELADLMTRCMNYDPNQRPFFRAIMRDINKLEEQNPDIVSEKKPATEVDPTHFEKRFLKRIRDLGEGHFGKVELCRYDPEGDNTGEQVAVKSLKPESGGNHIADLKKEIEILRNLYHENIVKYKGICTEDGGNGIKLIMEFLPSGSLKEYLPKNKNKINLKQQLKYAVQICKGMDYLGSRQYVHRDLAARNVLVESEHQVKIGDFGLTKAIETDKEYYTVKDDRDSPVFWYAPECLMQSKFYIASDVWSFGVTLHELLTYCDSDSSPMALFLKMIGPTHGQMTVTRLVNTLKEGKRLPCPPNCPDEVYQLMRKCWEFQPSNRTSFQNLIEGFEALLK

Row | SMILES | IC50 (GST-JAK1 enzyme) | IC50 (JAK3 enzyme) | IC50 (GST-JAK3 enzyme)
1 | CC1CCN(c2cc3c(N[C@H](C)C(C)(C)F)c(C(N)=O)cnn3c2)C1=O (mixture of isomers) [Example 134] | 40.1 nM | 8.7 nM | 8 nM
2 | CC(Nc1c(C(N)=O)cnn2cc(-c3ccncc3)cc12)c1cc(F)ccc1F (racemic) [Example 181, (+/−)-4-((1-(2,5-difluorophenyl)ethyl)amino)-6-(4-pyridinyl)pyrrolo[1,2-b]pyridazine-3-carboxamide] | 106 nM | 49.2 nM | 96.4 nM
3 | CC(Nc1c(C(N)=O)cnn2cc(-c3ccccc3)cc12)C(C)(C)C(N)=O (racemic) [Example 193, (+/−)-4-(4-amino-3,3-dimethyl-4-oxobutan-2-ylamino)-6-phenylpyrrolo[1,2-b]-pyridazine-3-carboxamide] | 2.7 nM | 1.8 nM | –
4 | C[C@@H](Nc1c(C(N)=O)cnn2cc(-n3ccccc3=O)cc12)C(C)(C)C [Example 5] | 193 nM | 48.4 nM | 24 nM
5 | C[C@@H](Nc1c(C(N)=O)cnn2cc(N3CCCCS3(=O)=O)cc12)C(C)(C)C [Example 17] | 141 nM | 21.6 nM | 22.4 nM
6 | CC(C)[C@H]1COC(=O)N1c1cc2c(N[C@H](C)C(C)(C)C)c(C(N)=O)cnn2c1 [Example 18] | 570 nM | 109 nM | 105 nM
7 | C[C@@H](Nc1c(C(N)=O)cnn2cc(N3CCN(C)C3=O)cc12)C(C)(C)C [Example 25] | 86 nM | 5.9 nM | 4.7 nM
8 | C[C@@H](Nc1c(C(N)=O)cnn2cc(N3CCNC3=O)cc12)C(C)(C)C [Example 29] | 46.1 nM | 1.2 nM | 5.3 nM
9 | NC(=O)c1cnn2cc(-c3ccccc3)cc2c1N[C@H](C(N)=O)c1ccccc1 [Example 125] | 260 nM | 18.6 nM | 66.7 nM
10 | CSc1nnc(-c2cc3c(N[C@H](C)C4CC4)c(C(N)=O)cnn3c2)o1 [Example 127, (R)-4-(1-cyclopropylethylamino)-6-(5-(methylthio)-1,3,4-oxadiazol-2-yl)pyrrolo[1,2-b]pyridazine-3-carboxamide] | 160 nM | 26 nM | 23.4 nM
11 | C[C@@H](Nc1c(C(N)=O)cnn2cc(N3CCOCC3=O)cc12)C(C)(C)F [Example 129] | 61.1 nM | 11 nM | 8.4 nM
12 | C[C@@H](Nc1c(C(N)=O)cnn2cc(N3CCCS3(=O)=O)cc12)C(C)(C)F [Example 131] | 83.1 nM | 11.3 nM | 4.8 nM
13 | CC(C)Nc1c(C(N)=O)cnn2cc(-c3ccc(C#N)cc3)cc12 [Example 146] | 26.5 nM | 15.1 nM | 11.1 nM
14 | CC(C)Nc1c(C(N)=O)cnn2cc(-c3ccc4c(c3)OCO4)cc12 [Example 149] | – | – | 23.8 nM
15 | CC(C)Nc1c(C(N)=O)cnn2cc(-c3ccnc4ccccc34)cc12 [Example 153] | 402 nM | 178 nM | 223 nM
16 | COc1cc(-c2cc3c(NC(C)C)c(C(N)=O)cnn3c2)c(F)cn1 [Example 154] | 149 nM | 35.1 nM | 56.3 nM
17 | C[C@@H](O)[C@@H](COP(=O)(O)O)Nc1c(C(N)=O)cnn2cc(-c3ccccc3)cc12 [Example 240, (2R,3R)-2-((3-carbamoyl-6-phenylpyrrolo[1,2-b]pyridazin-4-yl)amino)-3-hydroxybutyl dihydrogen phosphate, disodium] | 2200 nM | – | 880 nM

The remaining compounds from weak to strong by IC50 (GST-JAK3 enzyme), led by results:

Row | IC50 (GST-JAK1 enzyme) | IC50 (JAK3 enzyme) | IC50 (GST-JAK3 enzyme) | SMILES
18 | 43 nM | 0.9 nM | 3.7 nM | C[C@@H](Nc1c(C(N)=O)cnn2cc(N3CCCC3=O)cc12)C(C)(C)C [Example 2]
19 | 34 nM | 0.7 nM | 2.8 nM | C[C@@H](Nc1c(C(N)=O)cnn2cc(N3CCOC3=O)cc12)C(C)(C)C [Example 22]
20 | 8.8 nM | 1.2 nM | 2.5 nM | C[C@@H](Nc1c(C(N)=O)cnn2cc(-c3ccn[nH]3)cc12)C(C)(C)F [Example 43]
21 | 4 nM | 0.7 nM | 1.8 nM | C[C@@H](N)c1cccc(-c2cc3c(N[C@H](C)C(C)(C)F)c(C(N)=O)cnn3c2)c1 [Example 62]
22 | 5.2 nM | 0.9 nM | 1.4 nM | C[C@@H](Nc1c(C(N)=O)cnn2cc(-c3cccc(C#N)c3)cc12)C(C)(C)F [Example 53, (R)-6-(3-cyanophenyl)-4-(3-fluoro-3-methylbutan-2-ylamino)pyrrolo[1,2-b]pyridazine-3-carboxamide]
23 | 3 nM | 1 nM | 1.3 nM | C[C@@H](Nc1c(C(N)=O)cnn2cc(-c3cccc(C(O)CO)c3)cc12)C1CC1 (mixture of isomers) [Example 187, (R)-4-(1-cyclopropylethylamino)-6-(3-(1,2-dihydroxyethyl)phenyl)pyrrolo[1,2-b]-pyridazine-3-carboxamide]
24 | 0.6 nM | – | 1.2 nM | COc1ccc(-c2cc3c(N[C@H](C)C(C)(C)c4nc(C(N)=O)co4)c(C(N)=O)cnn3c2)cc1 [Example 219]
25 | – | 0.7 nM | 1 nM | C[C@@H](Nc1c(C(N)=O)cnn2cc(-c3cccc(CN)c3)cc12)C(C)(C)F [Example 68, 6-(3-(aminomethyl)phenyl)-4-(((1R)-2-fluoro-1,2-dimethylpropyl)amino) pyrrolo[1,2-b]pyridazine-3-carboxamide]
26 | 0.4 nM | – | 0.9 nM | C[C@@H](Nc1c(C(N)=O)cnn2cc(-c3ccc(C#N)cc3)cc12)C(C)(C)c1nc(C(N)=O)co1 [Example 222]
27 | 3.6 nM | 0.5 nM | 0.8 nM | COc1ccc(-c2cc3c(N[C@H](C)C(O)C4CC4)c(C(N)=O)cnn3c2)cn1 (single isomer, unassigned; isomer a) [Example 210]
28 | 7 nM | 0.2 nM | 0.7 nM | CCOC(=O)Nc1cc2c(N[C@H](C)C(C)(C)C)c(C(N)=O)cnn2c1 [Example 9]
29 | 3.8 nM | 18.8 nM | 0.6 nM | C[C@@H](Nc1c(C(N)=O)cnn2cc(-c3ccc(F)cc3)cc12)C(C)(C)F [Example 37]
30 | 0.5 nM | – | 0.3 nM | CC[C@@H](c1nc(C(N)=O)co1)[C@@H](C)Nc1c(C(N)=O)cnn2cc(-c3ccc(OC)nc3)cc12 [Example 224, 2-((2R,3R)-2-((3-carbamoyl-6-(6-methoxypyridin-3-yl)pyrrolo[1,2-b]pyridazin-4-yl)amino)pentan-3-yl)oxazole-4-carboxamide]

Source: patent US9221826B2, “Pyrrolopyridazine JAK3 inhibitors and their use for the treatment of inflammatory and autoimmune diseases” (Bristol-Myers Squibb Company, priority 2011, dated 2015)
